The values below are quoted from earlier work in patent US10154968B2, “Buprenorphine nanoparticle composition and methods thereof” (AUBURN UNIVERSITY, priority 2012, dated 2018).

Structures are written as SMILES.

Consider `CO[C@@]12CC[C@@]3(C[C@@H]1[C@](C)(O)C(C)(C)C)[C@H]1Cc4ccc(O)c5c4[C@@]3(CCN1CC1CC1)[C@H]2O5` [Buprenorphine, (25)-2-[(5R,6R,7R,145)-9α-Cyclopropylmethyl-4,5-epoxy-6,14-ethano-3-hydroxy-6-methoxymorphinan-7-yl]-3,3-dimethylbutan-2-ol], for which the half-life entry (background statement) is listed as “approximately two”. Moreover, the “excreted unchanged in the urine” value (previous studies) is recorded as 27%.
